From patent EP0223385B1, “8-Azabicyclo[3,2,1]octane and 9-azabicyclo[3,3,1]nonane derivatives” (BEECHAM GROUP PLC, priority 1985, dated 1987)
Structures can show the parent of a compound that is named as a salt.

System: von Bezold-Jarisch reflex evoked by 5-HT
Assay: Antagonism of the von Bezold-Jarisch reflex evoked by 5-HT in the anaesthetised rat
Assay type: in vivo
Details: iv, anaesthetised male rats, compounds given intravenously, dose reducing the 5-HT-evoked (usually 6µg/kg i.v.) heart rate response to 50% of control, read-out: ED₅₀
Procedure: The compounds were evaluated for antagonism of the von Bezold-Jarisch reflex evoked by 5-HT in the anaesthetised rat according to the following method:
Male rats 250-350g, were anaesthetised with urethane (1.25g/kg intraperitoneally) and blood pressure and heart rate recorded as described by Fozard J.R. et al., J. Cardiovasc. Pharmacol. 2, 229-245 (1980). A submaximal dose of 5-HT (usually 6µg/kg) was given repeatedly by the intravenous route and changes in heart rate quantified. Compounds were given intravenously and the concentration required to reduce the 5 HT-evoked response to 50% of the control response (ED₅₀) was then determined.

Structure (SMILES) | ED50
CN1[C@@H]2CCC[C@H]1C[C@@H](NC(=O)c1nn(C)c3ccccc13)C2 [Compound 2, N-(Endo-9-methyl-9-azabicyclo[3,3,1]non-3-yl)-1-methylindazole-3-carboxamide monohydrochloride] | 0.7 µg/kg
CN1[C@@H]2CC[C@H]1C[C@@H](OC(=O)c1nn(C)c3ccccc13)C2 [Compound 1, 1-Methyl-3-indazolecarboxylic acid (endo-8-methyl-8-azabicyclo[3,2,1]oct-3-yl)ester monohydrochloride] | 1.4 µg/kg
